This note sets out measurements from US20110159515A1, “COMPOSITIONS AND METHODS FOR THE RAPID GROWTH AND DETECTION OF MICROORGANISMS” (SOLUS SCIENTIFIC SOLUTIONS LIMITED, priority 2008, published 2011).

The test system of one test is L. innocua. Put plainly: Direct binding Salmonella assay (chemiluminescence immunosorbent). The following applies: 10^6 L. innocua. On the procedure:
The sample was heated to 100° C. for 5 minutes and allowed to cool. One hundred microlitres of each test sample was added directly to a well of a solid white 96 well high binding microtitre plate (Greiner Bio One) and incubated at 37° C. for 30 minutes. During incubation, the lipid A portion of the LPS binds to the surface of the plate via non-covalent hydrophobic interactions (FIG. 1a (1), FIG. 1b(1)).
The final concentration of antibody per well was 50 ng. The plate-bound sample (Salmonella LPS/core oligosaccharide) and antibody were incubated in the coated wells for 30 minutes as 37° C. Following incubation, plates were washed three times in wash buffer and pat dried prior to detection (FIG. 1a(2), FIG. 1b(2)).
When the anti-Salmonella is directly labelled with acridinium ester, plates were placed into a luminometer. 30 μl of trigger solution A and 60 μl of trigger solution B was added to each well of the microtitre plate to initiate light output from conjugated acridinium ester (FIG. 1a(3)). The luminometer settings were as follows:
When the anti-Salmonella antibody is not labelled, a second binding member, a goat anti-mouse IgG2b conjugate is used. Post column IgG2b was diluted 1:100 in a diluent comprising 3% (w/v) non-fat milk powder and 0.05% (v/v) Tween 20 and 100 ul of this solution was added to each well of the plate (FIG. 1b(3)). Following incubation at 37° C. for 60 minutes the plate was washed four times in wash buffer, dried and read as above (FIG. 1b(4)).
Monoclonal antibody (1:100 dilution) was incubated with either Salmonella or Listeria to determine optimum incubation times:
Monoclonal antibody (1:200 dilution) was incubated with either Salmonella or Listeria to determine optimum incubation times: […]

In another test the test system is S. aberdeen. Put plainly: Direct binding Salmonella assay on food cultures. To be noted: white plate, Lucy 1. As for the experimental part: 25 g of a food sample were added to 225 ml culture medium according to the first aspect of the invention. Alternatively a surface swab may be taken from a 10×10 cm area on a carcass and cultured in 2-5 ml culture medium according to the first aspect of the invention. Specifically the culture medium comprised 1% peptone, 8 g/L sodium tetrathionate and 0.15 mg/L brilliant green. […]
The sample was heated to 100° C. for 5 minutes and allowed to cool. One hundred microlitres of each test sample was added directly to a well of a solid white 96 well high binding microtitre plate (Greiner Bio One) and incubated at 37° C. for 30 minutes. During incubation, the lipid A portion of the LPS binds to the surface of the plate via non-covalent hydrophobic interactions (FIG. 1a (1), FIG. 1b(1)). Following incubation the plate was emptied and the wells washed three times with a wash buffer comprising 0.01M sodium phosphate buffer, pH 7.4, containing 0.147M NaCl and 0.05 (v/v) Tween 20.
White Plate read on Lucy 1 luminometer

On to `CCCCCCCCCCCCOS(=O)(=O)[O-].[Na+]` [SDS, sodium dodecyl sulphate], for which the “signal, release and detection of core oligosaccharide” value in the test on L. innocua (0.1% SDS) was 7863 relative light units; with L. innocua (0.5% SDS), 8051 relative light units. In addition, the “signal, food culture” value is on record as 131,488 ± 15,357 in the test on S. aberdeen (0.1% SDS, +ve Chicken (10 C.F.U. S. aberdeen, 18 hours)); 45,626 ± 3204 in the test with S. aberdeen (0.1% SDS, +ve Drinking Chocolate (10 C.F.U. S. aberdeen, 18 hours)); 746,670 ± 86,449 in the test on S. aberdeen (0.1% SDS, +ve Mayonnaise (10 C.F.U. S. aberdeen, 18 hours)); 3426 ± 316 with S. aberdeen (0.1% SDS, −ve Chicken); 1315 ± 63 in the test with S. aberdeen (0.1% SDS, −ve Drinking Chocolate); 4180 ± 610 in the test on S. aberdeen (0.1% SDS, −ve Mayonnaise). The “signal, food culture” value with S. aberdeen (0.5% SDS, +ve Chicken (10 C.F.U. S. aberdeen, 18 hours)) is given as 36,770 ± 2,020; in the test with S. aberdeen (0.5% SDS, +ve Drinking Chocolate (10 C.F.U. S. aberdeen, 18 hours)) it was 110,756 ± 5737^; in the test on S. aberdeen (0.5% SDS, +ve Mayonnaise (10 C.F.U. S. aberdeen, 18 hours)) it was 387,924 ± 106,504; with S. aberdeen (0.5% SDS, −ve Chicken) it was 4494 ± 904; in the test on S. aberdeen (0.5% SDS, −ve Drinking Chocolate), 3266 ± 142; in the test with S. aberdeen (0.5% SDS, −ve Mayonnaise), 3260 ± 733.
